Reference: patent US8575158B2, “1-phenyl-substituted heterocyclyl derivatives and their use as prostaglandin D2 receptor modulators” (Actelion Pharmaceuticals Ltd., priority 2010, dated 2013)

Molecular target: T1, hCRTH2 receptor (Homo sapiens, UniProt Q9Y5Y4)
T1 construct: expressed in transfected cells; host or cells: HEK293
T1 sequence (Q9Y5Y4 1-395): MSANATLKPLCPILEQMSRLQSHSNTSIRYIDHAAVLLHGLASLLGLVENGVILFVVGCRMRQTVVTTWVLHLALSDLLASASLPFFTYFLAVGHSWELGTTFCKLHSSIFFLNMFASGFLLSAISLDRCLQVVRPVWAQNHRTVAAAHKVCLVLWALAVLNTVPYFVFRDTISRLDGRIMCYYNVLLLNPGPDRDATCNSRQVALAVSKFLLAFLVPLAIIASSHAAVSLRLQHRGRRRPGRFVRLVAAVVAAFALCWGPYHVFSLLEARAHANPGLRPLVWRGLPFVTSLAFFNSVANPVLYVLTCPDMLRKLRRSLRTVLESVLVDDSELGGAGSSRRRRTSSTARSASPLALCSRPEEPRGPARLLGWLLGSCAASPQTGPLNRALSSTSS
Assay: Radioligand displacement assay (3H-PGD2) on hCRTH2 receptor membranes
Assay type: binding
Conditions: antagonistic activity, 3H-PGD2 radioligand displacement, HEK293-hCRTH2 membranes

| IC50 | SMILES |
| --- | --- |
| 678 nM | O=C(O)COc1ccc(Cl)cc1[C@@H]1c2ccc(F)cc2CCN1C(=O)CCn1ncc2cccc(Cl)c21 [Example 400] |
| 46.9 nM | O=C(O)COc1ccc(Cl)cc1[C@@H]1c2ccc(F)cc2CCN1C(=O)CCn1ncc2ccc(Cl)cc21 [Example 401, (4-Chloro-2-{(S)-2-[3-(6-chloro-indazol-1-yl)-propionyl]-6-fluoro-1,2,3,4-tetrahydro-isoquinolin-1-yl}-phenoxy)-acetic acid] |
| 170 nM | O=C(O)COc1ccc(Cl)cc1[C@@H]1c2ccc(F)cc2CCN1C(=O)CCn1ncc2c(Cl)cccc21 [Example 402] |
| 79.1 nM | O=C(O)COc1ccc(Cl)cc1[C@@H]1c2ccc(F)cc2CCN1C(=O)CCn1ncc2cccc(F)c21 [Example 403] |
| 67.8 nM | CC[C@@H]1C[C@H]1C(=O)N1CCc2ccccc2[C@H]1c1cc(Cl)ccc1OCC(=O)O [Example 460] |
| 185 nM | CCO[C@@H]1C[C@H]1C(=O)N1CCc2ccccc2[C@H]1c1cc(Cl)ccc1OCC(=O)O [Example 461] |
| 80.9 nM | C[C@@H]1C[C@H]1C(=O)N1CCc2ccccc2[C@H]1c1cc(Cl)ccc1OCC(=O)O [Example 462] |
| 11.2 nM | O=C(O)COc1ccc(Cl)cc1C1c2ccccc2CN1C(=O)C1CC1c1ccccc1 (stereo not drawn) [Example 503, {4-Chloro-2-[2-trans-(2-phenyl-cyclopropanecarbonyl)-2,3-dihydro-1H-isoindol-1-yl]-phenoxy}-acetic acid] |
| 40.5 nM | O=C(O)COc1ccc(Cl)cc1C1c2ccccc2CN1C(=O)C1CC1c1cccc(F)c1 (stereo not drawn) [Example 523, (4-Chloro-2-{2-trans-[2-(3-fluoro-phenyl)-cyclopropanecarbonyl]-2,3-dihydro-1H-isoindol-1-yl}-phenoxy)-acetic acid] |
| 81.3 nM | O=C(O)COc1ccc(Cl)cc1C1c2ccccc2CN1C(=O)C1CC1c1cccc(Cl)c1 (stereo not drawn) [Example 524, (4-Chloro-2-{2-trans-[2-(3-chloro-phenyl)-cyclopropanecarbonyl]-2,3-dihydro-1H-isoindol-1-yl}-phenoxy)-acetic acid] |
| 13.5 nM | O=C(O)COc1ccc(Cl)cc1C1c2ccccc2CN1C(=O)C1CC1c1ccccc1F (stereo not drawn) [Example 525, (4-Chloro-2-{2-trans-[2-(2-fluoro-phenyl)-cyclopropanecarbonyl]-2,3-dihydro-1H-isoindol-1-yl}-phenoxy)-acetic acid] |
| 340 nM | O=C(O)COc1ccc(Cl)cc1C1c2ccccc2CN1C(=O)CCn1ncc2cc(Cl)ccc21 (centres unmarked) [Example 544] |
| 180 nM | O=C(O)COc1ccc(Cl)cc1C1c2ccccc2CN1C(=O)CCn1ncc2ccc(Cl)cc21 (centres unmarked) [Example 549] |
| 240 nM | O=C(O)COc1ccc(Cl)cc1C1c2ccccc2CN1C(=O)CCn1ncc2c(Cl)cccc21 (centres unmarked) [Example 550] |
| 3.27 nM | Cc1ccccc1[C@@H]1C[C@H]1C(=O)N1CCc2ccccc2[C@H]1c1cc(Cl)ccc1OCC(=O)O [Example 560, {4-Chloro-2-[(S)-2-((1R,2R)-2-o-tolyl-cyclopropanecarbonyl)-1,2,3,4-tetrahydro-isoquinolin-1-yl]-phenoxy}-acetic acid] |

Same assay, conditions: radioligand displacement (3H-PGD2), hCRTH2 receptor membranes; antagonistic activity

| IC50 | SMILES |
| --- | --- |
| 274 nM | Cc1ccccc1[C@H]1C[C@@H]1C(=O)N1CCc2ccccc2[C@H]1c1cc(Cl)ccc1OCC(=O)O [Example 561, {4-Chloro-2-[(S)-2-((1S,2S)-2-o-tolyl-cyclopropanecarbonyl)-1,2,3,4-tetrahydro-isoquinolin-1-yl]-phenoxy}-acetic acid] |
| 3.75 nM | O=C(O)COc1ccc(Cl)cc1[C@@H]1c2ccccc2CCN1C(=O)[C@@H]1C[C@H]1c1ccccc1C(F)(F)F [Example 562, (4-Chloro-2-{(S)-2-[(1R,2R)-2-(2-trifluoromethyl-phenyl)-cyclopropanecarbonyl]-1,2,3,4-tetrahydro-isoquinolin-1-yl}-phenoxy)-acetic acid] |
| 264 nM | O=C(O)COc1ccc(Cl)cc1[C@@H]1c2ccccc2CCN1C(=O)[C@H]1C[C@@H]1c1ccccc1C(F)(F)F [Example 563, (4-Chloro-2-{(S)-2-[(1S,2S)-2-(2-trifluoromethyl-phenyl)-cyclopropanecarbonyl]-1,2,3,4-tetrahydro-isoquinolin-1-yl}-phenoxy)-acetic acid] |
| 4.29 nM | O=C(O)COc1ccc(Cl)cc1[C@@H]1c2ccccc2CCN1C(=O)[C@@H]1C[C@H]1c1cccc(Cl)c1 [Example 564, (4-Chloro-2-{(S)-2-[(1R,2R)-2-(3-chloro-phenyl)-cyclopropanecarbonyl]-1,2,3,4-tetrahydro-isoquinolin-1-yl}-phenoxy)-acetic acid] |
| 2.64 nM | O=C(O)COc1ccc(Cl)cc1[C@@H]1c2ccccc2CCN1C(=O)[C@@H]1C[C@H]1c1cccc(F)c1 [Example 565, (4-Chloro-2-{(S)-2-[(1R,2R)-2-(3-fluoro-phenyl)-cyclopropanecarbonyl]-1,2,3,4-tetrahydro-isoquinolin-1-yl}-phenoxy)-acetic acid] |
| 2.17 nM | O=C(O)COc1ccc(Cl)cc1[C@@H]1c2ccccc2CCN1C(=O)[C@@H]1C[C@H]1c1ccc(F)cc1 [Example 566, (4-Chloro-2-{(S)-2-[(1R,2R)-2-(4-fluoro-phenyl)-cyclopropanecarbonyl]-1,2,3,4-tetrahydro-isoquinolin-1-yl}-phenoxy)-acetic acid] |
| 370 nM | N#CNC(=O)COc1ccc(Cl)cc1[C@@H]1c2ccccc2CCN1C(=O)OCc1ccccc1 [Example 567, (S)-benzyl 1-(5-chloro-2-(2-cyanamido-2-oxoethoxy)phenyl)-3,4-dihydroisoquinoline-2(1H)-carboxylate] |
| 9.18 nM | O=C(COc1ccc(Cl)cc1[C@@H]1c2ccccc2CCN1C(=O)OCc1ccccc1)NS(=O)(=O)C(F)(F)F [Example 568, (S)-1-[5-Chloro-2-(2-oxo-2-trifluoromethanesulfonylamino-ethoxy)-phenyl]-3,4-dihydro-1H-isoquinoline-2-carboxylic acid benzyl ester] |
| 120 nM | O=C(COc1ccc(Cl)cc1[C@@H]1c2ccccc2CCN1C(=O)OCc1ccccc1)NO [Example 569, (S)-1-(5-Chloro-2-hydroxycarbamoylmethoxy-phenyl)-3,4-dihydro-1H-isoquinoline-2-carboxylic acid benzyl ester] |
| 355 nM | O=C(OCc1ccccc1)N1CCc2ccccc2C1c1cc(Cl)ccc1OCc1nnn[nH]1 (centres unmarked) [Example 570, (γ)-1-[5-Chloro-2-(1H-tetrazol-5-ylmethoxy)-phenyl]-3,4-dihydro-1H-isoquinoline-2-carboxylic acid benzyl ester] |
| 55 nM | O=C(OCc1ccccc1)N1CCc2ccccc2[C@H]1c1cc(Cl)ccc1OCc1n[nH]c(=O)o1 [Example 571, (S)-1-[5-Chloro-2-(5-oxo-4,5-dihydro-[1,3,4]oxadiazol-2-ylmethoxy)-phenyl]-3,4-dihydro-1H-isoquinoline-2-carboxylic acid benzyl ester] |
